Measurements published in patent US20220054548A1, “MIRNA FOR USE IN THERAPY” (King's College London, priority 2018, published 2022).
Entries after “also recorded” stand apart in the source; their conditions may differ.

How the values were obtained:
[1] = test system: TREG^Δ142 mice; test: In vivo cilostamide treatment of TREG^Δ142 mice (weight, survival); design: species or system mouse; details: 6.4 mg/kg intra-peritoneal cilostamide on alternate days from 8 weeks of age
Procedure: In vivo cilostamide treatment. Littermate TREG^Δ142 and WT mice were treated from 8 weeks of age with alternate day intra-peritoneal injections of either 6.4 mg/kg cilostamide (Sigma) in PBS 10% DMSO, or a control solution of PBS 10% DMSO. The mice were weighed every other day and monitored for signs of disease. A proportion of mice were sacrificed after 4 weeks of treatment and TREGS were isolated directly ex vivo for use in an in vitro co-culture suppression assay (as before). A proportion of mice were kept alive for as long as possible (either until they lost more than 15% of their body weight and had to be euthanised, or until the end of the experiment).

[2] = test system: TREGS from WT and TREG^Δ142 mice; test: In vitro co-culture suppression assay after in vitro cilostamide treatment; assay type: cell-based, mouse
Excerpt: (§1) In vitro Suppression Assay. CD4^+ T cells were isolated from pooled peripheral lymph nodes and spleens of 5-6 week old mice using CD4 microbeads (Miltenyi Biotec). Cells were labeled with fluorochrome-conjugated anti-mouse antibodies to CD4, CD62L, CD44 and CD25 (eBioscience) and sorted using a BD FACSAria II flow cytometric cell sorter (BD Biosciences) to >95% purity for YFP^+ CD4^+ cells (TREGS) and naïve (CD25−, CD62L+, CD44−) CD4+ T cells (TEFFS). An aliquot of the sorted TREG population was stained with Live-Dead and anti-CD25 antibodies, fixed and permeabilised, then stained for FoxP3 and acquired on a flow cytometer (as before) to confirm purity. The TEFFS were labeled with 10 μM Cell Trace Violet (Life Technologies) according to the manufacturer's instructions, washed and then cultured in a 96-well U-bottom plate alone or with TREGS at ratios ranging from (TEFF:TREG) 1:1 to 32:1, in triplicate, in the presence of anti-CD3 and anti-CD28 Dynabeads (Life Technologies) at a bead:cell ratio of 2:1, and RPMI 1640 cell culture medium (Gibco, Life Technologies) supplemented with 10% fetal calf serum, 50 μM 2-Mercapto-ethanol, 2 μM L-glutamine, pyruvate, HEPES, non-essential amino acids and antibiotics at 37° C. 5% CO2. All 4 possible combinations of TREGS and TEFFS from each group were utilised. After 72 hours in culture, the cells were stained with fluorochrome-conjugated anti-mouse antibodies to Live/Dead (Life Technologies) and then proliferation of the TEFFS was assessed by flow cytometry based on Cell Trace Violet dilution (excluding YFP+ and dead cells). The numbers of non-proliferating cells (events in the first peak) and precursors of proliferating cells were calculated using standard formulae. Percentage suppression (S) of proliferation was calculated using the formula: […]
In vitro Cilostamide treatment. […] They were then cultured in the presence of 10 μM cilostamide (Sigma Aldrich), or equivalent PBS/DMSO control for 48 hours before being washed twice, counted and used in an in vitro co-culture suppression assay, as above. […]

[3] = test system: miR-142-deficient TREGS; test: Co-culture TREG suppression assay ex vivo after 4 weeks of in vivo cilostamide treatment; design: species or system mouse; details: TREGS isolated ex vivo after 4 weeks of cilostamide treatment
Excerpt: as §1, with “The TEFFS were labeled with 10 μM Cell Trace Violet (Life Technologies) according to the manufacturer's instructions, washed and then cultured in a 96-well U-bottom plate alone or with TREGS at ratios ranging from (TEFF:TREG) 1:1 to 32:1, in triplicate, in the presence of anti-CD3 and anti-CD28 Dynabeads (Life Technologies) at a bead:cell ratio of 2:1, and RPMI 1640 cell culture medium (Gibco, Life Technologies) supplemented with 10% fetal calf serum, 50 μM 2-Mercapto-ethanol, 2 μM L-glutamine, pyruvate, HEPES, non-essential amino acids and antibiotics at 37° C. 5% CO2. All 4 possible combinations of TREGS and TEFFS from each group were utilised.” left out
In vivo cilostamide treatment. […] The mice were weighed every other day and monitored for signs of disease. […]

CN(C(=O)CCCOc1ccc2[nH]c(=O)ccc2c1)C1CCCCC1 [cilostamide]
Lethal autoimmune disease (weight and survival) [1]: prevented lethal autoimmune disease | TREG suppressive function (suppression of TEFF proliferation) ([2]; TEFFS pre-treated with cilostamide): No rescue of suppressive function | TREG suppressive function (suppression of TEFF proliferation) ([2]; TREG^Δ142 TREGS pre-treated with cilostamide 10 μM prior to co-culture with untreated TEFFS in the absence of cilostamide): restored the suppressive function; also recorded: no significant difference | TREG suppressive capacity ([2]; WT TREGS treated with cilostamide in vitro, compared with WT TREGS): marginal augmentation of ex vivo suppressive capacity | Suppressive activity of miR-142-deficient TREGS [3]: fully restored suppressive activity
